BindingDB's records for doi:10.1016/j.ejmech.2019.05.014 (Xuzhou Medical University, 2019)

Assays:
[1] = Inhibition of capsid protein in Hepatitis B virus infected in human HepG2.2.15 cells assessed as reduction in viral DNA level at 4 uM supplemented with fresh medium containing compound every 2 days and measured after 6 days by RT-PCR analysis
[2] = Inhibition of capsid protein in lamivudine/entecavir-resistant Hepatitis B virus harboring rtL180M/rtM204V/rt184L mutant infected in human HepG2.2.15 cells assessed as reduction in viral DNA level measured after 72 hrs by PCR analysis

| SMILES | IC50 [1] | IC50 [2] |
| --- | --- | --- |
| COc1ccccc1CSc1nc2ccc(F)cc2c(=O)n1Cc1cccs1 | 2.48 µM |  |
| CN(C)CCOc1ccc2nc(SCc3ccccc3)n(Cc3cccs3)c(=O)c2c1 | 1.54 µM | 1.9 µM |
| Nc1ccn([C@@H]2CS[C@H](CO)O2)c(=O)n1 [Epivir] | < 0.1 µM | > 100 µM |
| COc1ccccc1CSc1nc2ccccc2c(=O)n1Cc1cccs1 | 2.81 µM |  |
| COc1ccc(C(C)=O)cc1CSc1nc2ccccc2c(=O)n1Cc1cccs1 | 4.07 µM |  |
| CCN(CC)CCOc1ccc2nc(SCc3ccccc3OC)n(Cc3cccs3)c(=O)c2c1 | 1.93 µM |  |
| CCN(CC)CCOc1ccc2nc(SCc3ccccc3)n(Cc3cccs3)c(=O)c2c1 | 0.71 µM | 0.84 µM |
